Laboratory results as given in patent EP2457907A1, “Flavagline derivatives as neuroprotective agents” (Université de Strasbourg, priority 2010, dated 2012).

Legend:
[1] = tested on: primary cultures of mouse cerebellar neurons; assay: Neuroprotection against cisplatin-induced apoptosis (MTT assay); type: cell-based; settings: flavagline derivative 1 nM, cisplatin 2.5 µM, 48 hours; numbers only in Figure 3
Method: The in vitro neuroprotectant activity against neurotoxicity of an antineoplastic agent was assayed on apoptosis induced by cisplatin (2.5 µM) in primary cultures of mouse cerebellar neurons. Neuronal survival was measured by MTT assay.
Cerebellar granular neurons were dissected from 7-day old mice as described previously (Benosman et al., 2007). Briefly, after enzymatic and mechanical dissociation, cells were plated at a density of 500 cells/mm^2 on 0.1 mg/ml polyornithine-pre-coated culture dishes and were grown at 37 °C in a humidified atmosphere (5% CO2 / 95% air). Plating culture medium contained DMEM (Dulbecco's modified Eagle's medium; Life Technology) supplemented with 10% heat-inactivated horse serum (Life Technology), 100 nM insulin (Life Technology), […] gentamycin (Life Technology) and 25 mM KCl. […]
Mature neurons were cultured in 96-well culture dishes (Costar) and incubated for 48 hours in presence of cisplatine (2.5 µM) and flavagline derivative (1 nM) (which were both added into the medium at the same time). […] Plates were stirred at room temperature to ensure that all crystals were dissolved and read on a Bio-Rad 680 micro-ELISA plate-reader, using a test wavelength of 490 nm and a non-specific wavelength of 650 nm for background absorbency. […]

[2] = tested on: primary rat mesencephalic neurons; assay: Neuroprotection against MPP+-induced apoptosis (in vitro model of Parkinson's disease), TH immunostaining; type: cell-based; settings: 3µM MPP+; numbers only in Figure 4
Method: The neuroprotectant activity was tested in a cellular model of Parkinson's disease on primary mesencephalic cultures of rat embryos treated by MPP^+ (3µM) (Hoglinger et al. 2003).
Postmitotic dopaminergic neurons from the ventral mesencephalon of embryonic day 15.5 Wistar rat embryos (CERJ, Le Genest St. Isle, France) were dissociated mechanically, plated onto polyethylenimine-precoated 24-well culture plates, grown in N5 medium supplemented with 5 mM glucose, 5% horse serum and 2.5% fetal calf serum, as described previously (Michel et al., 1989). After 3 days, fetal calf serum was reduced to 0.5% to limit astrocyte proliferation. All experiments were initiated at day 5 in N5 medium containing 1 % horse serum and 0.1 % fetal calf serum. For each experiment MPP^+ (Sigma) was diluted to 10 mM in H2O. Cells were fixed with 4% formaldehyde for immunocytochemistry. Dopaminergic neurons were visualized by immunocytochemical detection of tyrosine hydroxylase (TH).

| Structure (SMILES) | protection of neurons against apoptosis induced by cisplatin (neuronal survival) [1] | protection against MPP+-induced neurodegeneration (TH-positive dopaminergic neurons) [2] |
| --- | --- | --- |
| COc1cc(OC)c2c(c1)OC1(c3ccc(Br)cc3)C(c3cccc(F)c3)CC(NC(=O)N(C)C)C21O (centres unmarked) [FL37] | able to prevent or limit neuronal cell apoptosis | able to prevent or limit neuronal cell degeneration |
| COc1cc(OC)c2c(c1)OC1(c3ccc(Br)cc3)C(c3ccccc3)CC(NC=O)C21O (centres unmarked) [FL23, N-(3a-(4-Bromophenyl)-8b-hydroxy-6,8-dimethoxy-3-phenyl-2,3,3a,8b-tetrahydro-1H-cyclopenta[b]benzofuran-1-yl)formamide] | able to prevent or limit neuronal cell apoptosis | able to prevent or limit neuronal cell degeneration |
| COc1cc(OC)c2c(c1)OC1(c3ccc(Br)cc3)C(c3cccc(F)c3)CC(NC=O)C21O (centres unmarked) [FL32, N-(3a-(4-Bromophenyl)-3-(3-fluorophenyl)-8b-hydroxy-6,8-dimethoxy-2,3,3a,8b-tetrahydro-1H-cyclopenta[b]benzofuran-1-yl)formamide] |  | able to prevent or limit neuronal cell degeneration |
